In US9975846B2, “Multivalent compounds for use in the treatment and prevention of brain damage” (MEDICORTEX FINLAND OY, priority 2014, dated 2018):

Key:
[1] = test system: mouse model of experimental closed head injury; test: Mouse model of experimental closed head injury: cognitive rehabilitation after traumatic brain injury; format: in vivo; conditions: closed head injury by weight-drop; s.c. from day 8 onwards, three times a week; behavioral tests at baseline, day 7, day 30
Description: A mouse model of experimental closed head injury disclosed by Yatsiv et al. in FASEB J. 2005, 19:1701-1703 is employed for testing the efficacy of the present compounds to improve functional recovery after a head trauma caused by a weight-drop onto an exposed skull.
Severity of the injury is assessed according to the Neurological Severity Score disclosed by Beni-Adani et al. (J. Pharmacol. Exp. Ther. 2001, 296:57-63) on the basis of ten individual tasks reflecting motor function, alertness, and behaviour.
Each test compound, control compound, or vehicle is administered subcutaneously from day 8 onwards, three times a week.
Behavioral tests, including open field (OF), elevated plus maze (EMP), and social recognition tests are carried out at baseline, on day 7, and day 30.
After euthanization, plasma levels of cytokines and TBI-specific biomarkers, such as S100B, are determined and the brains are evaluated histologically.

[2] = test system: rat model of experimental closed head injury; test: Rat model of experimental closed head injury: behaviour, brain edema, lesion volume, inflammatory markers; format: in vivo; conditions: oral 6 h post-injury
Description: A rat model of experimental closed head injury disclosed by Bilgen et al. (Neurorehabil. Neural Repair, 2005, 19:219-226) with some modifications is employed for testing the effect of the present compounds on behaviour, brain edema, lesion volume, and inflammatory markers after a head trauma.
Each test compound, control compound, or vehicle is administered orally 6 h post-injury.
In vivo T2 weighted magnetic resonance imaging (MRI) is performed on the animals to depict the pathologies, including lesion size, tissue viability, and brain edema, of the resulting injuries in the corresponding neuronal tissues at 24 h and day 3.
Behavioral tests, including a seven-point neuroscore test modified from Zausinger et al. (Brain Res., 2000, 863:94-105), are used to assess motor and behavioural deficits by a blinded investigator at baseline and on days 1, 3, 7, 14, and 28 post-injury. Additionally, sensimotor recovery of forelimb and hindlimb responses to tactile and proprioceptive stimulation is evaluated by a limb-placing test essentially as described by Jolkkonen et al. in Restor. Neurol. Neurosci., 2000, 17:211-216.
After euthanization, histological evaluation of the injury in the cortex and hippocampus is performed. Additionally, inflammatory markers, astrocytic and microglial activation is evaluated by immunohistochemistry.

[3] = test system: MPTP mouse model of Parkinson's disease; test: MPTP mouse model of Parkinson's disease: dopaminergic system protection; format: in vivo; conditions: MPTP 4 x 15 mg/kg i.p.; daily i.p. for 14 days from Day 0; striatal tissue by HPLC
Description: In the model, depletion of striatal dopamine (DA) and dopaminergic neuronal death in the substantia nigra (SN) is caused by systemic administration of MPTP (1-methyl-4-phenyl-1,2,3,6-tetrahydropyridine). To be more specific, MPTP is administered twice daily, 3 hours apart, by i.p. injections on Day 0 and Day 1. Each dose is 15 mg/kg, the total dose being 60 mg/kg.
Each test compound, control or vehicle is administered by daily i.p. injections for 14 days starting from Day 0.
After euthanization on Day 14, blood samples are collected by cardiac punctures and stored at −80° C. for further analysis. Blood is removed from the brains by transcardial perfusion with saline. Posterior brain blocks containing the SN are then removed and processed for cryosectioning, while striata are dissected in toto, pooled, weighted, snap-frozen in liquid nitrogen, and stored at −80° C.
20-μm-thick coronal cryosections are analysed immunohistochemically for the expression of tyrosine hydroxylase (TH), a rate-limiting enzyme in dopamine synthesis by counting the number of TH-positive neurons bilaterally in the SN.
Striatal tissue samples are analysed for DA and its two metabolites, 3,4-dihydroxyphenylacetic acid (DOPAC) and homovanillic acid (HVA), levels by HPLC.

[4] = test system: MPTP model; test: Modified MPTP mouse model: dopaminergic system protection and behavioral skills; format: in vivo, mice; conditions: MPTP 4 x 10 mg/kg i.p. Day 1; s.c. three times a week Day 2 to Day 21; rotarod, pole, social recognition tests
Description: In this administration scheme, mice are injected i.p. four times with a MPTP dose of 10 mg/kg, two hours apart, on Day 1. Each test compound, control and vehicle are administered s.c. three times a week from Day 2 until Day 21. The present compounds are administered either alone or in combination with a non-steroidal anti-inflammatory drug, antioxidant, and/or metal ions chelate. One week prior to the MPTP dosing, the mice are trained for a rotarod performance test for three days. The rotarod test is then repeated four times during the course of the experiment. Motor performance and coordination is also tested by a pole test. Social recognition test is conducted once on the last days of the experiment.

[5] = T2 weighted MRI at 24 h and day 3

In the case of `CCCCC/C=C\C/C=C\CCCCCCCC(=O)Nc1ccc(OC(=O)c2cccc(O)c2O)c(OCCOc2ccccc2OC(=O)c2cccc(O)c2O)c1` [TBI-446, 2-(2-(2-((2,3-dihydroxybenzoyl)oxy)-5-((9Z,12Z)-octadeca-9,12-dienamido)phenoxy)ethoxy)phenyl 2,3-dihydroxybenzoate], the “cognitive rehabilitation of the mice” value [1] is reported as “improved cognitive rehabilitation”, the “brain edema after closed head injury” value [2, 5] is reported as “decreased” and the “lesion volume after closed head injury” value [2, 5] is reported as “decreased”. For the same compound, the “levels of inflammatory markers” value ([2]; immunohistochemistry after euthanization) was “decreased”, the “protection of the dopaminergic system from reduction of striatal DA levels caused by MPTP” value [3] was “protect the dopaminergic system from the reduction of the DA levels” and the behavioural recovery [4] was “behavioural recovery”.
